{"source": "patent US20130131088A1", "about": "(UNIVERSITY HEALTH NETWORK, priority 2010, published 2013)", "key": {"AML-3 cell line [1]": {"system": "AML-3 cell line", "experiment": "potentiation of statin cytotoxic/apoptotic effects by agents that mimic DP activities", "format": "cell-based", "conditions": "for potentiation of the cytotoxic effects of statins / statin cancer cell death: in combination with statin (forskolin with fluvastatin)", "quoted_text": "The mechanism of action was investigated. First, to tease apart which of DP's many activities may be functionally critical, the synergistic potential of a panel of agents that mimics DP in one or more of its activities was tested (see Table 1).\nAs cilostazol inhibits PDE3 which activates. PKA, studies were carried out using various PKA activators, including forskolin, a cell permeable analog of cAMP, db-cAMP, and a PDE3 inhibitor. […] Inhibition of PDEs 6, 9 and 11 by zaprinast is expected to raise cGMP but not cAMP levels."}, "[2]": {"system": "AML cell lines and the KMS11 mM cell line", "experiment": "combination tests (FIG. 12)", "format": "cell-based", "conditions": "in combination with fluvastatin", "excerpt": "FIG. 12. Combination tests."}, "KMS11": {"system": "KMS11", "experiment": "potentiation of statin cytotoxic effects by agents that mimic DP activities", "format": "cell-based", "conditions": "in combination with statin", "protocol": "(§1) As cilostazol inhibits PDE3 which activates. PKA, studies were carried out using various PKA activators, including forskolin, a cell permeable analog of cAMP, db-cAMP, and a PDE3 inhibitor."}, "AML-2": {"system": "AML-2", "experiment": "potentiation of statin cytotoxic effects by agents that mimic DP activities", "format": "cell-based", "conditions": "in combination with statin", "protocol": "as §1"}, "[3]": {"system": "KMS11-luc (KMS11 cells stably expressing luciferase)", "description": "Tumours were imaged in mice on designated days by whole-body imaging using the IVIS imaging system illustrated by a representative image (C). Briefly, mice were i.p. injected with luciferein followed by anesthetization with isoflurane. Signal intensity was quantified using Living Image versio 2.50.2 (Xenogen) by summing detected photon counts from dorsal and ventral images."}, "CREB phosphorylation": {"system": "CREB phosphorylation", "experiment": "CREB phosphorylation immunoblot (LI-COR quantification)", "format": "cell-based", "conditions": "AML-3 cell line, 2 hours post-treatment", "protocol": "as §1"}, "KMS11 cell line": {"system": "KMS11 cell line", "experiment": "apoptosis by fixed PI, TUNEL and PARP cleavage", "conditions": "combination of dipyridamole and atorvastatin, 48 hrs; MVA dependant"}, "AML-3 cell line [4]": {"system": "AML-3 cell line", "experiment": "apoptosis by fixed PI, TUNEL and PARP cleavage", "conditions": "combination of dipyridamole and atorvastatin, 48 hrs; MVA dependant"}, "[5]": {"system": "HMGCR mRNA in primary AML patient samples", "experiment": "HMGCR mRNA levels by real-time PCR (SYBR Green)", "format": "cell-based", "conditions": "combination of statins and dipyridamole, 24 hours post compound treatment", "quoted_text": "(§2) RNA from primary AML and LP1 cells was harvested 24 and 16 hours post compound treatment respectively using TRIZOL reagent. HMGCR mRNA levels were assessed using real-time PCR (SYBR Green). […] For example, Fluva 2 indicates a fluvastatin concentration of 2 μM."}, "A549": {"system": "A549", "experiment": "potentiation and synergy with statin in lung cancer cell line", "format": "cell-based", "conditions": "with atorvastatin, 72 hours", "quoted_text": "(§3) Atorvastatin was used in A549's and fluvastatin the breast cancer cell lines to asses potentiation and synergy.\n(§4) Experiments in breast cancer cell lines (e.g. MCF-7) as well as the lung cancer cell lines (e.g. A549) were carried out similarly as described above.\n(§5) Atorvastatin was used in A549's and fluvastatin the breast cancer cell lines to assess potentiation and synergy."}, "[6]": {"system": "HMGCR mRNA in LP1 mM cells", "experiment": "HMGCR mRNA levels by real-time PCR (SYBR Green)", "format": "cell-based", "conditions": "combination of statins and dipyridamole, 16 hours post compound treatment", "quoted_text": "as §2"}, "[7]": {"system": "primary AML patient samples", "experiment": "apoptosis by Annexin V and propidium iodide dual staining", "format": "cell-based", "conditions": "48 hrs", "description": "AV−/PI−=live cells, AV+/PI−=early apoptosis, AV+/PI+=late apoptosis, AV−/PI+=necrosis."}, "[8]": {"system": "breast cancer cell lines (e.g. MCF-7)", "experiment": "potentiation and synergy with statin in breast cancer cell lines", "format": "cell-based", "conditions": "with fluvastatin, 72 hours", "quoted_text": "as §3, §4, §5"}, "[9]": {"system": "KMS11 Multiple Myeloma (MM) cells", "experiment": "chemical screen for compounds potentiating the anti-proliferative/cytotoxic effect of atorvastatin (MTS)", "format": "cell-based", "conditions": "sublethal doses in combination with atorvastatin (IC20), 72 hours", "quoted_text": "A hundred compounds from the chemical library (see text) were assayed at varying concentrations (5-50 μM).\nOne hundred compounds were evaluated for their ability to potentiate the anti-proliferative activity of atorvastatin on statin-sensitive KMS11 mM cells. Briefly, cells were exposed to sublethal doses of atorvastatin (IC20) alone and in combination with sublethal doses of the compounds."}, "[10]": {"conditions": "p.o. three times a week for 37 days initiated 2 days post KMS11-luc injection, alone"}}}
{"compound": "O=C1CCc2cc(OCCCCc3nnnn3C3CCCCC3)ccc2N1", "note": "[Cilostazol, cilostazol]", "values": [{"measurement": "potentiation of the cytotoxic effects of statins / statin cancer cell death", "setting": "AML-3 cell line [1]", "value": "potentiated"}, {"measurement": "level of potentiation compared with dipyridamole+fluvastatin", "setting": "[2]", "value": "similar"}, {"measurement": "potentiation of fluvastatin cell death", "setting": "[2]", "value": "potentiated"}, {"measurement": "potentiation of the cytotoxic effects of statins", "setting": "KMS11", "value": "potentiated"}, {"measurement": "potentiation of the cytotoxic effects of statins", "setting": "AML-2", "value": "potentiated"}]}
{"compound": "CC(C)c1c(C(=O)Nc2ccccc2)c(-c2ccccc2)c(-c2ccc(F)cc2)n1CC[C@@H](O)C[C@@H](O)CC(=O)O", "note": "[atorvastatin]", "values": [{"measurement": "effect on tumour growth, lower doses alone", "setting": "[3]; lower doses, p.o. 3 times a week", "value": "no significant effect"}, {"measurement": "survival", "setting": "[3]; [10]", "value": "prolonged"}, {"measurement": "tumor burden", "setting": "[3]; [10]", "value": "significantly reduced"}]}
{"compound": "CCCC(=O)Nc1ncnc2c1ncn2[C@@H]1O[C@@H]2COP(=O)(O)O[C@H]2[C@H]1OC(=O)CCC", "note": "[db-cAMP, dibutyryl-cAMP]", "values": [{"measurement": "CREB phosphorylation", "setting": "CREB phosphorylation", "value": "increase"}, {"measurement": "apoptotic effects in combination with atorvastatin", "setting": "AML-3 cell line [1]; 0.25 mM in combination with atorvastatin, 48 hours post treatment", "value": "recapitulated the DP-atorvastatin apoptotic effects"}]}
{"compound": "OCCN(CCO)c1nc(N2CCCCC2)c2nc(N(CCO)CCO)nc(N3CCCCC3)c2n1", "note": "[dipyridamole]", "values": [{"measurement": "induction of apoptosis", "setting": "KMS11 cell line", "value": "induced apoptosis"}, {"measurement": "induction of apoptosis", "setting": "AML-3 cell line [4]", "value": "induced apoptosis"}, {"measurement": "upregulation of HMGCR mRNA", "setting": "[5]", "value": "prevents the upregulation"}, {"measurement": "CREB phosphorylation", "setting": "CREB phosphorylation", "value": "increase"}, {"measurement": "potentiation of the anti-cancer effects of statins", "setting": "A549", "value": "potentiated"}, {"measurement": "upregulation of HMGCR mRNA", "setting": "[6]", "value": "prevents the upregulation"}, {"measurement": "induction of apoptosis", "setting": "[7]; in combination with atorvastatin", "value": "induced apoptosis"}, {"measurement": "induction of apoptosis", "setting": "[7]; in combination with fluvastatin", "value": "induced apoptosis"}, {"measurement": "potentiation of the anti-cancer effects of statins", "setting": "[8]", "value": "potentiated"}, {"measurement": "potentiation of the anti-proliferative activity of atorvastatin", "setting": "[9]", "value": "remarkable potentiation"}]}
{"compound": "C=C[C@@]1(C)CC(=O)[C@]2(O)[C@@]3(C)[C@@H](O)CCC(C)(C)[C@@H]3[C@H](O)[C@H](OC(C)=O)[C@@]2(C)O1", "note": "[forskolin]", "values": [{"measurement": "potentiation of the cytotoxic effects of statins / statin cancer cell death", "setting": "AML-3 cell line [1]", "value": "potentiated"}]}
